We go through 2 molecules from BindingDB's records for patent US20240018140 (Merck Sharp & Dohme, 2024).

For this test, the target named is T1, Ceramide glucosyltransferase (Homo sapiens, UniProt Q16739).
T1 sequence (Q16739 whole entry): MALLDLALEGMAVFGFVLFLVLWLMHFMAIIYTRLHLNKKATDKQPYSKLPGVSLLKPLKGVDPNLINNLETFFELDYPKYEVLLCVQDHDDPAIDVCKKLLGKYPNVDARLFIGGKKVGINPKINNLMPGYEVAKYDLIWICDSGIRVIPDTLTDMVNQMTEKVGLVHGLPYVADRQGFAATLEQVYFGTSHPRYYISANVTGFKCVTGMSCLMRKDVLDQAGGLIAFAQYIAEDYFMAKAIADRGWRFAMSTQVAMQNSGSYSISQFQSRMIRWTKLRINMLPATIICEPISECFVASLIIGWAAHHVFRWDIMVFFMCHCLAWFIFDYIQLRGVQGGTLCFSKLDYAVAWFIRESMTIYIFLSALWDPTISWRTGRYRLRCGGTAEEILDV
Put plainly: UDP-Glo Glucosylceramide Synthase Biochemical Assay. How it is done:
Using Promega's UDP-Glo Glycosyltransferase assay kit (Promega Corporation, Madison, WI, USA (Promega)), GCS activity was indirectly measured by detecting the amount of UDP produced. An aliquot of GCS enzyme (1.5 μg crude golgi preparation, total protein) and titrated test compound were aliquoted to each well and incubated for 30 minutes at room temperature. […] An equivalent volume of substrate mixture was then added to each well. Following a 20 h incubation at room temperature to allow for GCS turnover of substrate, an equal volume of UDP detection reagent (Promega) was added to each well and incubated for an additional 75 minutes at room temperature to simultaneously convert the accumulated UDP product into ATP and generate light in a luciferase reaction. The generated light was detected using a luminometer.

The term EC50 denotes the concentration at which the effect is half-maximal.

Each structure is given as a SMILES string.

`COCC1(NC(=O)c2cn3cc(Cl)cc(-c4ccccc4OCC(F)(F)F)c3n2)CC1` [US20240018140, Compound 6] came in with an EC50 of 2.4 nM. This counts as single-digit nanomolar.

Consider `CN1CCN(C(=O)c2cn3cc(Cl)cc(-c4ccccc4OCC(F)(F)F)c3n2)CC1(C)C` [US20240018140, Compound 7], for which it took 1.2 nM to reach a half-maximal effect (EC50).
